According to US8962558B2, “Methods for reducing GnRH-positive tumor cell proliferation using the GnRH antagonist IN3” (priority 1997, dated 2015):

Columns and labels:
[1] = system: BLM melanoma tumor cell line implant; format: in vivo, nude mice
Description: In one series of experiments, nude mice bearing human melanoma tumor cell line xenotransplants were treated for two weeks with 100 μg of Goserelin daily, while a second group of mice was administered 200 μg of Goserelin daily, with an additional daily supplement given by subcutaneous injection. […] The in vivo tumor growth has three predominant characteristics: mitotic activity, dedifferentiation, and infiltration of cells into the surrounding tissue and vessels.
Results for this study are depicted in FIG. 21. These observations are in line with the previously shown inhibition of Matrigel invasion of BLM cells under Zoladex treatment, as described above. A histological investigation of the tumor before and after treatment has confirmed this finding (results not shown).
In another set of experiments, ZOLADEX® treatment was administered to mice for a period of four to eight weeks, with an additional GnRH antagonist treatment to avoid any tumor proliferation (i.e. flare up) following cessation of the therapy and to avoid tumor cell receptor depletion.

[2] = system: malignant gliomas U-87MG and U-373MG; experiment: In vivo study with tumor-implanted nude mice (Example 4); details: daily dosages
Description: An effect of the treatment of tumor-implanted nude mice (Pinski et al., supra) each with one of the GnRH agonists Buserelin, Triptorelin, Goserelin, and Leuprorelin and each with one of the GnRH antagonists Cetrorelix® (SB-75), Antarelix®, Antide®, and Ramorelix® on the growth of malignant gliomas U-87MG and U-373MG was carried out using daily dosages and controls in nude mice using analysis techniques described for the determination of the efficacy of similar peptides in Pinski et al., supra.

BLM melanoma cells [3] = experiment: Matrigel gel assay (invasion); format: cell-based, human; details: 10^−6 M; 4, 8 and 12 days
Description: This dose has been also used in previous papers analyzing the interaction between GnRH agonists and stimulatory growth factors in prostate cancer cells. Subconfluent BLM cells were collected by trypsinization, resuspended in culture medium and seeded in 20 μL (150,000 cells/drop) on the lid of a culture dish. The lid was then placed on a dish filled with 2 mL of culture medium and incubated at 37° C. for 48 h. Matrigel solution (80 μL, 2.7 mg/mL) was pipetted onto the bottom of wells of a 24-well culture dish, and left to set at 37° C. Cell aggregates were transferred over the cushion and then overlaid with additional 20 μL of Matrigel. The aggregates into Matrigel were covered with 400 μL culture medium in the absence or in the presence of LHRH-A (10^−6 M). The aggregates were then observed daily under a light microscope and at the end of the incubation time phase-contrast pictures of the aggregates were taken.

BLM melanoma cells [4] = experiment: Chemomigration assay (Boyden's chamber); format: cell-based, human; details: 10^−6 M pretreatment for 5 days, FBS 5%
Description: The assay was performed using a 48-well Boyden's chamber, according to the manufacturer's instruction (Neuroprobe, Cabin John, Md.). Subconfluent BLM cells, grown in culture medium, were pretreated for 5 days with LHRH-A (10^−6 M) and harvested at the end of the treatment. BLM cell suspensions (10^5 cells/50 μL), resuspended in culture medium deprived of FBS, were placed in the open-bottom wells of the upper compartment of the chamber. Each pair of wells were separated by polyvinylpyrrolidone-free polycarbonate porous membrane (8-μm pores) pre-coated with gelatin (0.2 mg/mL in PBS). The chemoattractant (FBS 5%) was placed in the lower compartment of the chamber. The chamber was then kept for 4 h in the cell culture incubator. After that, the cells migrated through the pores, and adhered to the underside of the membrane, were fixed, stained (Diff-Quick kit, DADE, Dudingen, CH) and mounted onto glass slides. For quantitative analysis, six random objective fields of stained cells were counted for each well (8 wells/experimental group) and the mean number of migrating cells/mm^2 was calculated. The data obtained from four independent experiments were compared by ANOVA and Dunnett's test.

Glioblastoma multiforme = experiment: Phase II study with ZOLADEX (Example 7); format: in vivo, human
Description: Patients with histologically confirmed Glioblastoma multiforme following a first operation were treated (also randomized controlled) with ZOLADEX® in the manner described by Jonat et al., 1995, European J. Cancer, 137-142. Following radiotherapy, the patients are assigned to two different groups. One group received treatment, for example with ZOLADEX® and one group without ZOLADEX® (or with Cetrorelix® and without Cetrorelix®, or with ANTIDE® and without ANTIDE®, or with […]® or without […]® etc.). The resulting clinical effects are similar to metastasized […] mammary carcinoma. The percentage of patients showing an actual significant therapy effect is evaluated according to the criteria of tumor volume, recidivation-free survival, overall survival following initial application of the compound, and Karnofsky and Spitzer indices in a clinical neurological examination and under consideration of the other examination criteria (Sposto, R., et al., 1989, J. Neurooncology, 7, 165-177, and Kirby, S., et al., 1995, J. Natl. Cancer Institute, 87, 1884-1888, 1995).

Me15392 melanoma cells = experiment: Cell proliferation studies, Me15392 cells; format: cell-based, human; details: 10^−11-10^−6 M, 7 days
Description: The antiproliferative action of GnRH agonists on melanoma cells is further investigated in another melanoma cell line (Me15392). These experiments have been carried out as described above for BLM cells (same GnRH agonist, same doses of the drug and same length of treatment, etc.). All proliferation experiments were performed in four to six replicates. The data obtained from three independent experiments were analyzed according to the Dunnett's test after one-way ANOVA.

SMILES: CC(C)C[C@H](NC(=O)[C@@H](COC(C)(C)C)NC(=O)[C@H](Cc1ccc(O)cc1)NC(=O)[C@H](CO)NC(=O)[C@H](Cc1c[nH]c2ccccc12)NC(=O)[C@H](Cc1cnc[nH]1)NC(=O)[C@@H]1CCC(=O)N1)C(=O)N[C@@H](CCCNC(=N)N)C(=O)N1CCC[C@H]1C(=O)NNC(N)=O [ZOLADEX®, D-Ser(tBu)^6Aza-Gly-LHRH]
- reduction in tumor weight ([1]; 100 μg or 200 μg daily, after two weeks, both groups): 50%
- persistence of tumor growth inhibition despite cessation of treatment ([1]; 100 μg/day or 200 μg/day): ~4 weeks
- growth inhibitory effect compared with 100 μg/day ([1]; 200 μg/day): even more powerful growth inhibitory effect
- tumor growth once treatment has stopped ([1]; after two weeks (16 days) of treatment): rebound of tumor growth (flare up) is observed
- inhibition of BLM cell growth ([1]; mouse, in vivo): about 50%
- growth of malignant gliomas [2]: Significant growth-inhibiting effects
- migration of the cells through the Matrigel (BLM melanoma cells [3]): completely abrogates
- number of cells that migrate in response to the chemoattractant (BLM melanoma cells [4]): significantly decreased
- reduction in tumor volume vs untreated control group (Glioblastoma multiforme; MRT and/or CAT scans): significantly higher reduction in tumor volume
- overall survival following initial application vs untreated control group (Glioblastoma multiforme; in vivo): significantly longer overall survival
- recidivation-free survival vs untreated control group (Glioblastoma multiforme; in vivo): significantly longer recidivation-free survival
- cell proliferation (Me15392 melanoma cells): significant and dose-dependent inhibition of cell proliferation
